Assay: Cure of MS-kit with 4-dodecylbenzenesulfonic acid (comparative example 1a-b)
Assay type: physicochemical
Details: added instead of a tin-catalyst
Procedure: (§1) All ingredients except the Tegokat are added to a Hauschild cup and mixed in a Hauschild mixer for 60 seconds. Than the catalyst is added and mixed for another 30 seconds. Additionally UV- and light stabilizers, pigments etc. may be added in the first or second step.

cure | SMILES
no cure was observed | CCCCCCCCCCCCc1ccc(S(=O)(=O)O)cc1 [4-dodecylbenzenesulfonic acid]

Same assay, conditions: after addition of a tin catalyst

SMILES | cure
CCCCCCCCCCCCc1ccc(S(=O)(=O)O)cc1 [4-dodecylbenzenesulfonic acid] | behaved as without 4-dodecylbenzenesulfonic acid

Assay: not given
Details: not given
Procedure: as §1
In fig.6 the degradation time in hours at 150°C is plotted versus the time in days prior to cure at 40°C. On the horizontal axis the time the sealant was stored at 40°C before cure in days is given, showing the storage stability of the anti-oxidant, and on the vertical axis the time in hours to degradation at 150°C, showing the effectiveness of the anti-oxidant after storage of the sealant. This test may be seen as a stress test for both storage stability of the sealant as subsequent oxidation stability. The line represents the present situation using Irganox 1135 commonly applied in the sealant.
In fig. 8 a similar test as in fig. 6 is performed with the above mentioned anti-oxidants.
At present samples have been tested of a commercial STP (or SMP) sealant containing Irganox 1035, Irganox 1330 and a mixture thereof. The total antioxidant content of all samples is 4 g/kg STP polymer. The samples are stored in an oven at 40°C. The degradation times are determined at 150°C as a function of storage time. Furthermore, tensile tests are performed directly and after dumbbells used in said tests are exposed to 100°C for 1000 hours. This is done on freshly prepared sealants and sealants that have been stored at 40°C for 4 weeks.

Degradation time after 7 days @ 40°C [h] | Initial degradation Time [h] | Relative decrease degradation time after 7days @ 40°C [%] | SMILES
2 | 9 | 22 | Cc1cc(CCC(=O)OCCOCCOCCOC(=O)CCc2cc(C)c(O)c(C(C)(C)C)c2)cc(C(C)(C)C)c1O [Irganox 245]
2 | 16 | 13 | CC(C)(C)c1cc(CCC(=O)OCCSCCOC(=O)CCc2cc(C(C)(C)C)c(O)c(C(C)(C)C)c2)cc(C(C)(C)C)c1O [Irganox 1035]
3 | 24 | 13 | CC(C)(C)c1cc(CCC(=O)OCC(COC(=O)CCc2cc(C(C)(C)C)c(O)c(C(C)(C)C)c2)(COC(=O)CCc2cc(C(C)(C)C)c(O)c(C(C)(C)C)c2)COC(=O)CCc2cc(C(C)(C)C)c(O)c(C(C)(C)C)c2)cc(C(C)(C)C)c1O [Irganox 1010]
9 | 16 | 56 | CCCCCCCCSc1nc(Nc2cc(C(C)(C)C)c(O)c(C(C)(C)C)c2)nc(SCCCCCCCC)n1 [Irganox 565]
21 | 34 | 62 | Cc1c(Cc2cc(C(C)(C)C)c(O)c(C(C)(C)C)c2)c(C)c(Cc2cc(C(C)(C)C)c(O)c(C(C)(C)C)c2)c(C)c1Cc1cc(C(C)(C)C)c(O)c(C(C)(C)C)c1 [Irganox 1330]

Assay: Oxidation resistance of MS-kit with dodecylsulfide (comparative example 2a-d)
Assay type: physicochemical
Details: up to 5% added to a standard mix with and without Irganox 1135, compared to standard mixture without dodecylsulfide
Procedure: Up to 5% dodecylsulfide was added to a standard mix with and without Irganox 1135. No change in oxidation resistance was found compared to the standard mixture with or without Irganox 1135 not containing dodecylsulfide.

oxidation resistance | SMILES
No change | CCCCCCCCCCCCSCCCCCCCCCCCC [dodecylsulfide]

Reference: patent publication EP3353259B1, “SILYL MODIFIED POLYMER SEALANT” (Strongbond B.V., priority 2015, dated 2017)
